Data on eleven molecules can be found in US10053431B2, “Tetrahydro-benzodiazepinones” (priority 2013, dated 2018).

Usually IC50 stands for the concentration that inhibits the measured activity by half.

Structures are written as SMILES. Where a name gives a salt, the structure may show the parent alone. Where only a bound is given, the exact number is not on record here.

One assay addresses BIR3 domain of XIAP (Homo sapiens (Human), UniProt P98170). Description: TR-FRET assay for BIR3 (inhibition of binding of XIAP BIR3 domain to SMAC-derived Peptide A). The settings on record: 6x His-tagged BIR3 domain (aa 241-356 of XIAP) 10 nM, Peptide A 20 nM, TR-FRET. A general note: TR-FRET usually uses a lanthanide donor and a delayed reading to cut background.
A further assay concerns the target BIR2 domain of XIAP (Homo sapiens (Human), UniProt P98170, C202A/C213G). Description: TR-FRET assay for BIR2 (inhibition of binding of XIAP BIR2 domain to SMAC-derived Peptide A). The note with it: 6x His-tagged BIR2 domain (aa 124-240 of XIAP) 10 nM, Peptide A 20 nM, TR-FRET; read-out: IC50 BIR2.

Sequence of BIR2 domain of XIAP (P98170 124-240 with tags or gaps C202A/C213G limits assumed): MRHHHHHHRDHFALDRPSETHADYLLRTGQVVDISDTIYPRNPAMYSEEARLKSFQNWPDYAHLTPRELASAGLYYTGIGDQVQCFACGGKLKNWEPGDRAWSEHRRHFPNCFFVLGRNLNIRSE
Sequence of BIR3 domain of XIAP (P98170 241-356 with tags or gaps limits assumed): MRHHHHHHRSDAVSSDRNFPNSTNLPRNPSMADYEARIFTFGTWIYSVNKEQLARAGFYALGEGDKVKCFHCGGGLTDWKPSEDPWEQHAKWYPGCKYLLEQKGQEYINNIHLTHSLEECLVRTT

As to `CN[C@@H](C)C(=O)N[C@H]1CN(C(C)=O)c2cc(C#N)ccc2N(Cc2c(C3CC3)ccc3c(C#N)cccc23)C1=O` [Example 176, (S)-N-((S)-5-acetyl-7-cyano-1-((5-cyano-2-cyclopropylnaphthalen-1-yl)methyl)-2-oxo-2,3,4,5-tetrahydro-1H-benzo[b][1,4]diazepin-3-yl)-2-(methylamino)propanamide hydrochloride], the IC50 worked out at 25600 nM at BIR3 domain of XIAP and 38.2 nM at BIR2 domain of XIAP.

On to `CN[C@@H](C)C(=O)N[C@H]1CN(C(C)=O)c2cc(C(F)(F)F)ccc2N(Cc2nn(-c3ccccc3C#N)c3ccccc23)C1=O` [Example 177, (S)-N-((S)-5-acetyl-1-((1-(2-cyanophenyl)-1H-indazol-3-yl)methyl)-2-oxo-7-(trifluoromethyl)-2,3,4,5-tetrahydro-1H-benzo[b][1,4]diazepin-3-yl)-2-(methylamino)propanamide hydrochloride], for which the IC50 at BIR3 domain of XIAP was over 54800 nM; on BIR2 domain of XIAP, 35.3 nM.

As to `CN[C@@H](C)C(=O)N[C@H]1CN(C(=O)c2ccc(N)cc2)c2ccccc2N(Cc2c(OCCF)ccc3ccccc23)C1=O` [Example 178, (2S)-N-[(3S)-1-(4-aminobenzoyl)-5-[[2-(2-fluoroethoxy)naphthalen-1-yl]methyl]-4-oxo-2,3-dihydro-1,5-benzodiazepin-3-yl]-2-(methylamino)propanamide;hydrochloride], the 50% inhibitory concentration (IC50) on BIR3 domain of XIAP was 16100 nM; on BIR2 domain of XIAP, 14.2 nM.

Take `CN[C@@H](C)C(=O)N[C@H]1CN(C(=O)C2CCOCC2)c2cc(C#N)ccc2N(Cc2c(C3CC3)cnc3ccccc23)C1=O` [Example 180, (S)-N-((S)-7-cyano-1-((3-cyclopropylquinolin-4-yl)methyl)-2-oxo-5-(telrahydro-2H-pyran-4-carbonyl)-2,3,4,5-tetrahydro-1H-benzo[b][1,4]diazepin-3-yl)-2-(methylamino)propanamide]: the figures for the IC50 on BIR3 domain of XIAP and on BIR2 domain of XIAP were 16500 nM and 18 nM, respectively.

Take `CN[C@@H](C)C(=O)N[C@H]1CN(C(C)=O)c2cc(C#N)ccc2N(Cc2c(OC)ccc3c(C#N)cccc23)C1=O` [Example 182, (S)-N-((S)-5-acetyl-7-cyano-1-((5-cyano-2-methoxynaphthalen-1-yl)methyl)-2-oxo-2,3,4,5-tetrahydro-1H-benzo[b][1,4]diazepin-3-yl)-2-(methylamino)propanamide]: the IC50 on BIR3 domain of XIAP was 32400 nM; at BIR2 domain of XIAP it was 23.5 nM.

In the case of `CN[C@@H](C)C(=O)N[C@H]1CN(C(=O)C2CCOCC2)c2cc(C(F)(F)F)ccc2N(Cc2c(C3CC3)cnc3ccccc23)C1=O` [Example 184, (S)-N-((S)-1-((3-cyclopropylquinolin-4-yl)methyl)-2-oxo-5-(tetrahydro-2H-pyran-4-carbonyl)-7-(trifluoromethyr)-2,3,4,5-tetrahydro-1H-benzo[b][1,4]diazepin-3-yl)-2-(methylamino)propanamide], the values for the half-maximal inhibitory concentration (IC50) at BIR3 domain of XIAP and at BIR2 domain of XIAP were 15200 nM and 18.3 nM, respectively.

In the case of `CN[C@@H](C)C(=O)N[C@H]1CN(C(=O)CS(C)(=O)=O)c2cc(C(F)(F)F)ccc2N(Cc2c(C3CC3)cnc3ccccc23)C1=O` [Example 187, (S)-N-((S)-1-((3-cyclopropylquinolin-4-yl)methyl)-5-(2-(methylsulfonyl)acetyl)-2-oxo-7-(trifluoromethyl)-2,3,4,5-tetrahydro-1H-benzo[b][1,4]diazepin-3-yl)-2-(methylamino)propanamide], the IC50 was determined as 34400 nM on BIR3 domain of XIAP and 49.3 nM at BIR2 domain of XIAP.

`CN[C@@H](C)C(=O)N[C@H]1CN(C(=O)CCS(C)(=O)=O)c2cc(C(F)(F)F)ccc2N(Cc2c(C3CC3)cnc3ccccc23)C1=O` [Example 188, (S)-N-((S)-1-((3-cyclopropylquinolin-4-yl)methyl)-5-(3-(methylsulfonyl)propanoyl)-2-oxo-7-(trifluoromethyl)-2,3,4,5-tetrahydro-1H-benzo[b][1,4]diazepin-3-yl)-2-(methylamino)propanamide]: the half-inhibitory concentration (IC50) came out at 25400 nM at BIR3 domain of XIAP and 22.5 nM on BIR2 domain of XIAP.

`CN[C@@H](C)C(=O)N[C@H]1CN(C(C)=O)c2cc(C(F)(F)F)ccc2N(Cc2c(C3CC3)ccc3c(C#N)cccc23)C1=O` [Example 189, (S)-N-((S)-5-acetyl-1-((5-cyano-2-cyclopropylnaphthalen-1-yl)methyl)-2-oxo-7-(trifluoromethyl)-2,3,4,5-tetrahydro-1H-benzo[b][1,4]diazepin-3-yl)-2-(methylamino)propanamide]: the concentration for half-maximal inhibition (IC50) on BIR3 domain of XIAP was 29300 nM; on BIR2 domain of XIAP, 30.4 nM.

Regarding `CN[C@@H](C)C(=O)N[C@@H]1C(=O)N(CC(=O)Nc2c(F)cccc2F)c2ccccc2N(C(C)=O)[C@H]1C` [Example 190, (S)-N-((2S,3S)-1-acetyl-5-(2-(2,6-difluorophenylamino)-2-oxoethyl)-2-methyl-4-oxo-2,3,4,5-tetrahydro-1H-benzo[b][1,4]diazepin-3-yl)-2-(methylamino)propanamide hydrochloride], the IC50 was over 54800 nM at BIR3 domain of XIAP and 85.3 nM at BIR2 domain of XIAP.

For `CN[C@@H](C)C(=O)N[C@@H]1C(=O)N(CC(=O)Nc2ccccc2)c2ccccc2N(C(C)=O)[C@H]1C` [Example 191, (S)-N-((2S,3S)-1-acetyl-2-methyl-4-oxo-5-(2-oxo-2-(phenylamino)ethyl)-2,3,4,5-tetrahydro-1H-benzo[b][1,4]diazepin-3-yl)-2-(methylamino)propanamide hydrochloride], the half-inhibitory concentration (IC50) is over 54800 nM at BIR3 domain of XIAP and 434 nM at BIR2 domain of XIAP.
